Measured values from article PMC12785325, “Edible Yellow Mealworm-Derived Antidiabetic Peptides: Dual Modulation of α-Glucosidase and Dipeptidyl-Peptidase IV Inhibition Revealed by Integrated Proteomics, Bioassays, and Molecular Docking Analysis” (Foods, 2025).
Where a SMILES comes first, the peptide text is derived from it.

Experiments:
DPP-IV = biological target: T1, DPP-IV (Homo sapiens, UniProt P27487); experiment: DPP-IV inhibitor screening assay (commercial kit, Abcam); assay type: biochemical; settings: IC50 from DPP-IV inhibition rates, '-' = no IC50 given (only three peptides showed inhibitory effects against DPP-IV)
T1 construct: purchased Abcam (Cambridge, UK)
Experimental: Subsequently, the screening assay was conducted using a commercial kit (Abcam, Cambridge, UK) following the protocols provided by the manufacturer. The half-maximal inhibitory concentration (IC50) was determined through analysis of DPP-IV inhibition rates, applying the formula outlined in Equation (2):(2) DPP-IV inhibition rate (%) = [(ABlank − ASample)/ABlank] × 100 where A represents the absorbance value.

HepG2 cells = experiment: HepG2 cell viability (CCK-8); assay type: cell-based, human; settings: at certain concentrations within 100-400 μg/mL, 24 h, p < 0.05
Experimental: HepG2 human hepatocellular carcinoma cells utilized in this study were generously provided by Prof. Fuliang Hu from Zhejiang University’s College of Animal Science (China). Cellular maintenance involved cultivation in HyClone’s high-glucose DMEM medium supplemented with 10% heat-inactivated fetal bovine serum (Gibco, Waltham, MA, USA) and antibiotic agents (100 U/mL penicillin plus 100 μg/mL streptomycin). Cellular propagation was conducted under standard culture conditions (37 °C, 5% CO2 humidified atmosphere), following established protocols.
To validate whether the bioactive peptides exert toxic effects on cells, the impact of peptide concentrations on cell viability should also be assessed. […] After the treatment period, 10 μL of CCK-8 solution was added, and these 96-well plates were gently shaken and incubated again at 37 °C under 5% CO2 for another 1 h. In the end, the calculation methodology for evaluating the cell viability of bioactive peptides is described in Equation (2) in Section 2.6 to assess the effects of bioactive peptides on cell viability. All blank groups were established using DMEM high-glucose medium devoid of insulin.

T1 sequence (P27487 whole entry): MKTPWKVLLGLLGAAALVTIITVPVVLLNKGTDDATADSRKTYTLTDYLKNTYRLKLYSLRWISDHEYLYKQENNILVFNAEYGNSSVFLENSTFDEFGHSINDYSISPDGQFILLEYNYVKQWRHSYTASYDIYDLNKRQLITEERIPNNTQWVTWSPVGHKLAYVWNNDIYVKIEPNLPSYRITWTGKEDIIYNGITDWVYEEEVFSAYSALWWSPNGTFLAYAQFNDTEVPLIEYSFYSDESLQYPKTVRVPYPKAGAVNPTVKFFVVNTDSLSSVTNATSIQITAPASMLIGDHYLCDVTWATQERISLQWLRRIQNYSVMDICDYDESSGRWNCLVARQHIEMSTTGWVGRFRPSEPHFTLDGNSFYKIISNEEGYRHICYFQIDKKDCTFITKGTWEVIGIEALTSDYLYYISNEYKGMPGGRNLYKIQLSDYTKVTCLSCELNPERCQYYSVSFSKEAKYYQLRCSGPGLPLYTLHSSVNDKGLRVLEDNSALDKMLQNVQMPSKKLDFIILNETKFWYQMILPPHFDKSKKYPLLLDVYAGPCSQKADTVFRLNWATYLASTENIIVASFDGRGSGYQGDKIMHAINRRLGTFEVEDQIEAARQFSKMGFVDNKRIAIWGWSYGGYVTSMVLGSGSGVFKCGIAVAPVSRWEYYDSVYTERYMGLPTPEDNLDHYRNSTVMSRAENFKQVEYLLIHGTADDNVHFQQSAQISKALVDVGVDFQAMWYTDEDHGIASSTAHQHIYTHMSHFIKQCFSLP

SMILES	IC50 (DPP-IV) [mM]	HepG2 cell viability versus blank group (HepG2 cells)
CC(C)C[C@H](NC(=O)[C@H](C)NC(=O)[C@H](CC(=O)O)NC(=O)[C@H](Cc1ccccc1)NC(=O)[C@@H]1CCCN1C(=O)[C@@H](N)CC(=O)O)C(=O)N1CCC[C@H]1C(=O)N[C@@H](CCCCN)C(=O)O [DK-8] (H-DPFDALPK-OH)	–	significantly higher than the blank group
CSCC[C@H](NC(=O)CN)C(=O)N[C@@H](CC(=O)O)C(=O)N[C@@H](Cc1ccccc1)C(=O)N[C@@H](CCC(N)=O)C(=O)N1CCC[C@H]1C(=O)N[C@@H](CCCNC(=N)N)C(=O)O [GR-7] (H-GMDFQPR-OH)	–	significantly higher than the blank group

The next lines start with results.

IC50 (DPP-IV) [mM]	SMILES	HepG2 cell viability versus blank group (HepG2 cells)
> 12.2	NCCCC[C@H](NC(=O)[C@H](Cc1ccccc1)NC(=O)[C@@H]1CCCN1C(=O)[C@@H]1CCCN1C(=O)CNC(=O)[C@H](Cc1ccc(O)cc1)NC(=O)[C@@H](N)CC(=O)O)C(=O)O [DK-7] (H-DYGPPFK-OH)	–
> 10.2	CC(C)C[C@H](NC(=O)[C@H](CC(=O)O)NC(=O)[C@H](Cc1ccccc1)NC(=O)[C@@H]1CCCN1C(=O)[C@H](CC(N)=O)NC(=O)[C@@H](N)Cc1ccccc1)C(=O)N[C@H](C(=O)N[C@@H](CCCCN)C(=O)O)[C@@H](C)O [FK-8] (H-FNPFDLTK-OH)	–
> 14.2	CC(C)C[C@H](NC(=O)[C@@H](N)CO)C(=O)N[C@@H](Cc1ccccc1)C(=O)N[C@@H](CC(C)C)C(=O)N1CCC[C@H]1C(=O)N[C@@H](CCCCN)C(=O)O [SK-6] (H-SLFLPK-OH)	significantly higher than the blank group
